Assay results from publication PMC6344531, “Discovery and evaluation of inhibitor of LARP6 as specific antifibrotic compound” (Scientific Reports, 2019).

Target: T1, LARP6 (Homo sapiens, UniProt Q9BRS8)
T1 construct: LARP6*, amino-acids 72–303, His-tag
T1 sequence (Q9BRS8 72-303): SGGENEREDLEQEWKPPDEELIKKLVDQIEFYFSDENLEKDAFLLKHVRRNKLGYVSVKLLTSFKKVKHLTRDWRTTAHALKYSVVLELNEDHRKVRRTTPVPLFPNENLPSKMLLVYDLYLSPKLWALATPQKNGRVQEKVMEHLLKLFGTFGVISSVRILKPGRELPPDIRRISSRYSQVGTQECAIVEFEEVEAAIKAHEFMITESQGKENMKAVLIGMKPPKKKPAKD
Test: FP dissociation of LARP6* from fluorescein-labelled […]'SL RNA; intrinsic tryptophan fluorescence quenching of LARP6*; gel mobility shift with extracts of treated cells
Format: binding

## Cc1cccn2c(=O)c3cc(C(=O)Nc4cccnc4)n(C)c3nc12 [C9]
  IC50: ~15 µM
